Data: patent US20240391923A1, “METHIONINE ADENOSYLTRANSFERASE 2A INHIBITOR FOR TREATING MTAP DELETION-TYPE CANCER” (SUZHOU GENHOUSE BIO CO., LTD., priority 2022, published 2024)
Like-named read-outs stand apart in the source and are kept apart here.

Columns and labels:
Hut-78 cell strain = assay: Tumor cell proliferation inhibition assay (CellTiter-Glo), Hut-78; type: cell-based; conditions: Homo sapiens, HuT78, 120 h, Hut-78 cells, 5-day treatment
Experimental: After the HCT116-MTAP-knockout (−/−) cell strain, the HCT116-MTAP wild-type(+/+)-cell strain, the DOHH-2 cell strain, or the Hut-78 cell strain was treated with the test compound for 5 days, the ATP level was measured using a CellTiter-Glo kit of Promega to evaluate the inhibition of the test compound against the growth of the tumor cell strain.
In the present application, the HCT116-MTAP-knockout (−/−) cell strain, the HCT116-MTAP wild-type (+/+)-cell strain, the DOHH-2 cell strain, or the Hut-78 cell strain was seeded into a 96-well cell culture plate at an appropriate cell density. After 24 h, the cells were treated using the test compounds diluted 1:3 fold at the highest concentration of 10 μM for 10 gradients, and a DMSO treatment group was set up separately. The cells were cultured in a 37° C./5% CO2 incubator for 5 days.

[1] = tested on: SDMA in HCT116-MTAP-knockout cell line; assay: Cell symmetric dimethylarginine (SDMA) test, In-cell Western, HCT116-MTAP-knockout; type: cell-based; conditions: Homo sapiens, 96 h
[2] = tested on: HCT116-MTAP wild-type (+/+)-cell strain; assay: Tumor cell proliferation inhibition assay (CellTiter-Glo), HCT116-MTAP wild-type (+/+); type: cell-based; conditions: Homo sapiens, 120 h, HCT116-MTAP wild-type (+/+) cells, 5-day treatment
In short: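 Read-out: CellTiter-Glo ATP luminescence after 5-day compound exposure at 37° C./5% CO2. Dosing began 24 h post-seeding, 10 μM top, 1:3 dilutions, 10 points; DMSO-treated cells as reference.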

[3] = tested on: SDMA in human colon cancer cell line HCT116; assay: Cell symmetric dimethylarginine (SDMA) test, In-cell Western, HCT116 (MTAP wild-type); type: cell-based; conditions: Homo sapiens, HCT-116, 96 h
In short: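 SDMA level, an indirect readout of cellular MAT2A inhibition, measured by In-cell Western as background-subtracted 800/700 nm signal against DRAQ5. Cells exposed 4 days to six 1:4-diluted doses from 6 μM; inhibition relative to DMSO, IC50 from sigmoidal fit.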

[4] = target: MAT2A recombinant protein (Homo sapiens, UniProt P31153); assay: MAT2A inhibitory activity (malachite green colorimetric enzyme assay); type: biochemical
In short: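 Compounds tested over 10 points, 3-fold dilutions, top final concentration 1000 nM. Enzyme reaction: MAT2A, L-methionine, ATP, room temperature, 60 min, in HEPES pH 7.5 buffer with KCl, MgCl2 and DTT; inorganic phosphate read colorimetrically (malachite green, A630). Inhibition vs log concentration fitted for IC50.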

[5] = IC50 score, read-out: Tumor cell 5-day relative growth inhibition (Hut-78) (nM), score
[6] = IC50 value, read-out: Tumor cell 5-day relative growth inhibition (Hut-78)
[7] = IC50 score class, read-out: Cell 96 h SDMA Inhibition (HCT116-MTAP−/−) (score)
[8] = read-out: Cell 96 h SDMA Inhibition (HCT116-MTAP−/−)
[9] = IC50 score, read-out: Tumor cell 5-day relative growth inhibition (HCT116-MTAP+/+) (nM), score
[10] = IC50 value, read-out: Tumor cell 5-day relative growth inhibition (HCT116-MTAP+/+)
[11] = IC50 score class, read-out: Cell 96 h SDMA Inhibition (HCT116-MTAP+/+) (score)
[12] = read-out: Cell 96 h SDMA inhibition (HCT116-MTAP+/+)
[13] = IC50 score class, read-out: MAT2A Inhibition (score)

MAT2A recombinant protein, sequence (P31153 whole entry): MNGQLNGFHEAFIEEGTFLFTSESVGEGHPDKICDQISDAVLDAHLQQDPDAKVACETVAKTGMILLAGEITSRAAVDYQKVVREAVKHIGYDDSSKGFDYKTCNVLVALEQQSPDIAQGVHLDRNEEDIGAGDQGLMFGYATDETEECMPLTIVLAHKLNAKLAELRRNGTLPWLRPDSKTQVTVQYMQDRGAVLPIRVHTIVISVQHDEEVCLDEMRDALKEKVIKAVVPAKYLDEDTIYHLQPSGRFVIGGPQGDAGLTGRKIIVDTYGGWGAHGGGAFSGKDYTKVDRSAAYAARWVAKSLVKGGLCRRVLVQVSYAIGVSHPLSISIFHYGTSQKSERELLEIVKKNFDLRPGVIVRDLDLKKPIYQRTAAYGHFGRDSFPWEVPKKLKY

Cn1cc2c(n1)c(=O)n(-c1cccnc1C1CC1)c1nc(C(F)(F)F)ccc21 (single isomer, unassigned) [Compound B213]
IC50 (Hut-78 cell strain; [5]): < 500 nM
IC50 (Hut-78 cell strain; [6]): 21.8 nM
IC50 [1, 7]: < 200 nM
IC50 [1, 8]: 25 nM
IC50 [2, 9]: 500 to 2000 nM
IC50 [2, 10]: 1740 nM
IC50 [3, 11]: 200 to 1000 nM
IC50 [3, 12]: 206 nM

CCn1nc2c(=O)n(-c3cccnc3)c3cc(Cl)ccc3c2c1F [Compound B33]
IC50 (Hut-78 cell strain; [5]): 500 to 2000 nM
IC50 (Hut-78 cell strain; [6]): 1100 nM
IC50 [1, 7]: 1000 to 3000 nM
IC50 [1, 8]: 2650 nM
IC50 [2, 9]: ≥ 2000 nM
IC50 [2, 10]: > 2000 nM
IC50 [4, 13]: < 100 nM
IC50 ([4]; read-out: MAT2A Inhibition): 25.6 nM
IC50 [3, 11]: > 3000 nM
IC50 [3, 12]: 4880 nM

NC(=O)CC1N=c2c(c3ccc(Cl)cc3n(-c3cccnc3)c2=O)=N1 (stereo not shown) [Compound B36]
IC50 (Hut-78 cell strain; [5]): ≥ 2000 nM
IC50 (Hut-78 cell strain; [6]): > 2000 nM
IC50 [1, 7]: 1000 to 3000 nM
IC50 [1, 8]: 2730 nM
IC50 [2, 9]: ≥ 2000 nM
IC50 [2, 10]: > 2000 nM
IC50 [4, 13]: < 100 nM
IC50 ([4]; read-out: MAT2A Inhibition): 55.2 nM
IC50 [3, 11]: < 200 nM
IC50 [3, 12]: 24.7 nM

CNC(=O)CC1N=c2c(c3ccc(Cl)cc3n(-c3cccnc3)c2=O)=N1 (stereo not shown) [Compound B37]
IC50 (Hut-78 cell strain; [5]): ≥ 2000 nM
IC50 (Hut-78 cell strain; [6]): 6430 nM
IC50 [1, 7]: 200 to 1000 nM
IC50 [1, 8]: 888 nM
IC50 [2, 9]: ≥ 2000 nM
IC50 [2, 10]: > 2000 nM
IC50 [4, 13]: < 100 nM
IC50 ([4]; read-out: MAT2A Inhibition): 51.7 nM
IC50 [3, 11]: 1000 to 3000 nM
IC50 [3, 12]: 1260 nM

Cc1ncccc1-n1c(=O)c2[nH]ncc2c2ccc(C3CC3)nc21 [Compound B95]
IC50 (Hut-78 cell strain; [5]): < 500 nM
IC50 (Hut-78 cell strain; [6]): 18.8 nM
IC50 [1, 7]: < 200 nM
IC50 [1, 8]: 4 nM
IC50 [2, 9]: 500 to 2000 nM
IC50 [2, 10]: 621 nM
IC50 [4, 13]: < 100 nM
IC50 ([4]; read-out: MAT2A Inhibition): 48.2 nM
IC50 [3, 11]: > 3000 nM
IC50 [3, 12]: > 3000 nM

Cc1ncccc1-n1c(=O)c2[nH]ncc2c2ccc(OC(F)(F)F)cc21 [Compound B101]
IC50 (Hut-78 cell strain; [5]): < 500 nM
IC50 (Hut-78 cell strain; [6]): 50.4 nM
IC50 [1, 7]: < 200 nM
IC50 [1, 8]: 48.7 nM
IC50 [2, 9]: ≥ 2000 nM
IC50 [2, 10]: > 2000 nM
IC50 [4, 13]: < 100 nM
IC50 ([4]; read-out: MAT2A Inhibition): 59.7 nM
IC50 [3, 11]: > 3000 nM
IC50 [3, 12]: > 3000 nM

Cn1cc2c(n1)c(=O)n(-c1cccc(F)c1)c1nc(C(F)(F)F)ccc21 [Compound B193]
IC50 (Hut-78 cell strain; [5]): 500 to 2000 nM
IC50 (Hut-78 cell strain; [6]): 696 nM
IC50 [1, 7]: 200 to 1000 nM
IC50 [1, 8]: 387 nM
IC50 [4, 13]: < 100 nM
IC50 ([4]; read-out: MAT2A Inhibition): 25 nM
IC50 [3, 11]: 1000 to 3000 nM
IC50 [3, 12]: 2110 nM

Cn1cc2c(n1)c(=O)n(-c1cccnc1Cl)c1nc(C(F)(F)F)ccc21 [Compound B196]
IC50 (Hut-78 cell strain; [5]): < 500 nM
IC50 (Hut-78 cell strain; [6]): 9.3 nM
IC50 [1, 7]: < 200 nM
IC50 [1, 8]: 25.3 nM
IC50 [4, 13]: < 100 nM
IC50 ([4]; read-out: MAT2A Inhibition): 45.1 nM
IC50 [3, 11]: 200 to 1000 nM
IC50 [3, 12]: 691 nM

COc1ncccc1-n1c(=O)c2nn(C)cc2c2ccc(C(F)(F)F)nc21 [Compound B203]
IC50 (Hut-78 cell strain; [5]): < 500 nM
IC50 (Hut-78 cell strain; [6]): 40.4 nM
IC50 [1, 7]: < 200 nM
IC50 [1, 8]: 66.6 nM
IC50 [4, 13]: < 100 nM
IC50 ([4]; read-out: MAT2A Inhibition): 51.4 nM
IC50 [3, 11]: 200 to 1000 nM
IC50 [3, 12]: 634 nM

O=c1c2nn(C3CCOC3)cc2c2ccc(C(F)(F)F)nc2n1-c1cccnc1 (stereo not shown) [Compound B204]
IC50 (Hut-78 cell strain; [5]): < 500 nM
IC50 (Hut-78 cell strain; [6]): 312 nM
IC50 [1, 7]: 1000 to 3000 nM
IC50 [1, 8]: 1850 nM
IC50 [4, 13]: < 100 nM
IC50 ([4]; read-out: MAT2A Inhibition): 67.4 nM
IC50 [3, 11]: 1000 to 3000 nM
IC50 [3, 12]: 1190 nM

Cn1cc2c(n1)c(=O)n(-c1ccc3[nH]cnc3c1)c1cc(Cl)ccc21 [Compound B206]
IC50 (Hut-78 cell strain; [5]): ≥ 2000 nM
IC50 (Hut-78 cell strain; [6]): > 2000 nM
IC50 [1, 7]: 1000 to 3000 nM
IC50 [1, 8]: 1180 nM
IC50 [4, 13]: < 100 nM
IC50 ([4]; read-out: MAT2A Inhibition): 93 nM
IC50 [3, 11]: 1000 to 3000 nM
IC50 [3, 12]: 1290 nM

Cc1ncccc1-n1c(=O)c2nn(C3CC3)cc2c2ccc(C(F)(F)F)nc21 [Compound B211]
IC50 (Hut-78 cell strain; [5]): < 500 nM
IC50 (Hut-78 cell strain; [6]): 47.7 nM
IC50 [1, 7]: < 200 nM
IC50 [1, 8]: 39.1 nM
IC50 [2, 9]: 500 to 2000 nM
IC50 [2, 10]: 1150 nM
IC50 [4, 13]: < 100 nM
IC50 ([4]; read-out: MAT2A Inhibition): 35.8 nM
IC50 [3, 11]: 1000 to 3000 nM
IC50 [3, 12]: 1020 nM

Cc1[nH]nc2c(=O)n(-c3cccnc3)c3nc(C(F)(F)F)ccc3c12 [Compound B216]
IC50 (Hut-78 cell strain; [5]): < 500 nM
IC50 (Hut-78 cell strain; [6]): 245 nM
IC50 [1, 7]: < 200 nM
IC50 [1, 8]: 134 nM
IC50 [2, 9]: ≥ 2000 nM
IC50 [2, 10]: 3590 nM
IC50 [4, 13]: < 100 nM
IC50 ([4]; read-out: MAT2A Inhibition): 25.3 nM
IC50 [3, 11]: 200 to 1000 nM
IC50 [3, 12]: 433 nM

Cc1cncc(-n2c(=O)c3nn(C)cc3c3ccc(C(F)(F)F)nc32)c1 [Compound B217]
IC50 (Hut-78 cell strain; [5]): ≥ 2000 nM
IC50 (Hut-78 cell strain; [6]): 5430 nM
IC50 [1, 7]: 1000 to 3000 nM
IC50 [1, 8]: 1820 nM
IC50 [2, 9]: ≥ 2000 nM
IC50 [2, 10]: > 2000 nM
IC50 [3, 11]: > 3000 nM
IC50 [3, 12]: > 3000 nM

COc1ccc(-n2cc3c(n2)c(=O)n(-c2ccccc2)c2nc(C(F)(F)F)ccc32)cc1 [Compound B218]
IC50 (Hut-78 cell strain; [5]): < 500 nM
IC50 (Hut-78 cell strain; [6]): 130 nM
IC50 [1, 7]: < 200 nM
IC50 [1, 8]: 39.5 nM
IC50 [2, 9]: ≥ 2000 nM
IC50 [2, 10]: 3990 nM
IC50 [4, 13]: < 100 nM
IC50 ([4]; read-out: MAT2A Inhibition): 77.9 nM
IC50 [3, 11]: > 3000 nM
IC50 [3, 12]: > 3000 nM

Cn1cc2c(n1)c(=O)n(-c1cncc(O)c1)c1nc(C(F)(F)F)ccc21 [Compound B221]
IC50 (Hut-78 cell strain; [5]): ≥ 2000 nM
IC50 (Hut-78 cell strain; [6]): 10600 nM
IC50 [1, 7]: 1000 to 3000 nM
IC50 [1, 8]: 2540 nM
IC50 [2, 9]: ≥ 2000 nM
IC50 [2, 10]: > 2000 nM
IC50 [4, 13]: < 100 nM
IC50 ([4]; read-out: MAT2A Inhibition): 52.7 nM
IC50 [3, 11]: 200 to 1000 nM
IC50 [3, 12]: 475 nM

Cc1ccc(-n2c(=O)c3nn(C)cc3c3ccc(C(F)(F)F)nc32)cn1 [Compound B223]
IC50 (Hut-78 cell strain; [5]): 500 to 2000 nM
IC50 (Hut-78 cell strain; [6]): 1360 nM
IC50 [1, 7]: 200 to 1000 nM
IC50 [1, 8]: 692 nM
IC50 [2, 9]: ≥ 2000 nM
IC50 [2, 10]: > 2000 nM
IC50 [3, 11]: 200 to 1000 nM
IC50 [3, 12]: 583 nM
